Assay results published in patent US20120149572A1, “USE OF AGROCHEMICAL MIXTURES FOR INCREASING THE HEALTH OF A PLANT” (BASF SE, priority 2009, published 2012).

Tested on: cotyledons
Assay: Growth of excised cucumber cotyledons (fresh biomass) in treatment solution
Type: in vivo, Cucumbers
Conditions: for Mean cotyledon biomass: 3 days in the dark at 25° C., 20 cotyledons per treatment; for Observed efficacy (%): % biomass increase compared to 0.5% DMSO control; for growth stimulation of the cotyledons: applied alone
Experimental: The effect of dicamba as an example for compound (I), pyraclostrobin as an example for compound (II) and the respective mixture comprising both compounds on the growth of cotyledons, as one indicator of a plant's health, was evaluated. Cucumbers were sown and germinated in the dark at 25° C. for 4 days. Subsequently, 20 cotyledons per treatment were cut and placed in a Petri dish containing 20 ml of the treatment solution. Control cotyledons were treated with the 0.5% DMSO solution. Following the incubation in the dark at 25° C. for 3 days the cotyledons were weight and the fresh biomass recorded (table 1).
The efficacy of the tested compounds was calculated as % of biomass increase compared to the control:
E=(a/b−1)*100 • a corresponds to the biomass (mg) of the treated cotyledons after incubation; • b corresponds to the biomass (mg) of untreated cotyledons after incubation (control).
The expected efficacies of the combinations of the active ingredients were estimated using Colby's formula (Colby, S. R., Calculating synergistic and antagonistic responses of herbicide combinations, Weeds, 15, pp. 20-22, 1967) and compared with the observed efficacies.
Colby's formula: E=x+y−x*y/100 • E expected efficacy, expressed in % of the untreated control, when using the mixture comprising the compounds A and B at the concentrations a and b; • x efficacy, expressed in % of the untreated control, when using compound A at the concentration a; • y efficacy, expressed in % of the untreated control, when using compound B at the concentration b.

SMILES	Mean cotyledon biomass (1.25 ppm in 0.5% DMSO)	Observed efficacy (%) (1.25 ppm)	growth stimulation of the cotyledons	Mean cotyledon biomass (2 ppm in 0.5% DMSO)	Observed efficacy (%) (2 ppm)
COc1c(Cl)ccc(Cl)c1C(=O)O [Dicamba, dicamba]	69.9 mg	−0.8%	no growth stimulation	–	–
COC(=O)N(OC)c1ccccc1COc1ccn(-c2ccc(Cl)cc2)n1 [Pyraclostrobin, pyraclostrobin]	–	–	no growth stimulation	67.7 mg	−3.9%
